In paper PMC2275798 (The Journal of biological chemistry, 2007) one finds KI, Ki and Kd data, which are given here for three molecules.

In test [1] the target is T1, LSECtin carbohydrate-recognition domain (CRD) (Homo sapiens, UniProt Q6UXB4).
T1 sequence (Q6UXB4 160-293): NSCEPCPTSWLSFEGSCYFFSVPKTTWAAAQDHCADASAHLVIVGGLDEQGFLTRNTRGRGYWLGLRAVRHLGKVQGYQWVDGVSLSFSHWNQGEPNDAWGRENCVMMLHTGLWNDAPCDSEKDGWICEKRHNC
It is filed as binding.

Test [2] deals with T1, LSECtin carbohydrate-recognition domain (CRD). It is filed as binding. The source holds these as a separate data set.
For test [3], the target named is T2, Ebola virus surface glycoprotein GP1 (Fc fusion) GP1 (Zaire ebolavirus, UniProt Q05320).
T2 chain: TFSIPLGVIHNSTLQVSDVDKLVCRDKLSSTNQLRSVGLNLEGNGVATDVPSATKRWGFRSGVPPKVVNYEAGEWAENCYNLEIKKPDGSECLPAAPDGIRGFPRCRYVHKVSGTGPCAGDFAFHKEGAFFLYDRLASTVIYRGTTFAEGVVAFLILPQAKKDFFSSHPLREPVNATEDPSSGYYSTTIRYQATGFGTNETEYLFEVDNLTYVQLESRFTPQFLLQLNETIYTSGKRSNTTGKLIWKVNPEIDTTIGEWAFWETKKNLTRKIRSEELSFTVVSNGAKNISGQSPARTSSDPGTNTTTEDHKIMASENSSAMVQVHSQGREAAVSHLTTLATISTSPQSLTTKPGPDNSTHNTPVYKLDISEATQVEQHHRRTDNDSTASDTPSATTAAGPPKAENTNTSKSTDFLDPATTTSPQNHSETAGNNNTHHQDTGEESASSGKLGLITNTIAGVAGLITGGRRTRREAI

For orientation: Ki means a measure of affinity in units of concentration, obtained from inhibition or displacement. What is called Kd is a measure of binding affinity in units of concentration. Read a low Kd as tighter binding.

On to `OC[C@H]1O[C@H](OC[C@H]2OC(O)[C@@H](O)[C@@H](O[C@H]3O[C@H](CO)[C@@H](O)[C@H](O)[C@@H]3O)[C@@H]2O)[C@@H](O)[C@@H](O)[C@@H]1O` (stereo partly drawn) [branched trimannose oligosaccharide], for which the KI result in test [1] was “The branched trimannose oligosaccharide, which forms the core of the complex glycans”.
In test [2], `CC(=O)N[C@H]1[C@H](O[C@@H]2C(O)O[C@H](CO)[C@@H](O)[C@@H]2O)O[C@H](CO)[C@@H](O)[C@@H]1O` (stereo partly drawn) [GlcNAcβ1-2Man] came in with a Ki of 3500 nM.

B1: LSECtin CRD (protein)
chain: FEGSCYFFSVPKTTWAAAQDHCADASAHLVIVGGLDEQGFLTRNTRGRGYWLGLRAVRHLGKVQGYQWVDGVSLSFSHWNQGEPNDAWGRENCVMMLHTGLWNDAPCDSEKDGWIC
Molecule B1 displayed a Kd in test [3] of 3.7 nM.
